From ChEMBL document CHEMBL3525953, “In vitro cytochrome P450-mediated metabolism of exemestane” (Drug Metab Dispos, 2011) come the findings set out here.

Common to all, as to type: ADME
Data set [1] deals with Liver microsome. As to the kind of experiment: Drug metabolism in human liver microsomes assessed as retention time treated with 300 uM of exemestane after 10 mins by HPLC with UV analysis.
Data set [2] has as its target Cytochrome P450 3A5 (Homo sapiens, UniProt P20815). As to the kind of experiment: Drug metabolism assessed as human recombinant CYP3A5-mediated 6-Hydroxymethylexemestane formation rate per pmol of enzyme at 10 uM after 10 mins.
The target of data set [3] is T1, Cytochrome P450 2C8 (Homo sapiens, UniProt P10632).
T1 sequence (P10632 whole entry): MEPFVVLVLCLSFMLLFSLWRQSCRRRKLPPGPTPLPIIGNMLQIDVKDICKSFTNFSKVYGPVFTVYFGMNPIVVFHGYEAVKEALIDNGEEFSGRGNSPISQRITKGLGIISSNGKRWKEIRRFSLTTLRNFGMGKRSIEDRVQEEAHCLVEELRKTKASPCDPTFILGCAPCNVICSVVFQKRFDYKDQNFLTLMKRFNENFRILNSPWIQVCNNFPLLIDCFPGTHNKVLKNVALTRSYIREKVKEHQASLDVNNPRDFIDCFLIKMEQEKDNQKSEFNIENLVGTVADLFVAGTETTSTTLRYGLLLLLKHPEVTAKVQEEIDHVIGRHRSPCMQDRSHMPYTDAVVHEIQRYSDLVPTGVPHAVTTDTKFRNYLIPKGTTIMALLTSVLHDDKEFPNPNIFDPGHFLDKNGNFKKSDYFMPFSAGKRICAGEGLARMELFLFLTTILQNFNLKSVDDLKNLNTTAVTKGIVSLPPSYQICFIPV
As to the kind of experiment: Drug metabolism assessed as human recombinant CYP2C8-mediated 6-Hydroxymethylexemestane formation at 10 uM after 10 mins by Michaelis-Menten saturation curve analysis. The following applies: recombinant enzyme.

Data set [4] addresses T2, Cytochrome P450 2B6 (Homo sapiens, UniProt P20813).
T2 sequence (P20813 whole entry): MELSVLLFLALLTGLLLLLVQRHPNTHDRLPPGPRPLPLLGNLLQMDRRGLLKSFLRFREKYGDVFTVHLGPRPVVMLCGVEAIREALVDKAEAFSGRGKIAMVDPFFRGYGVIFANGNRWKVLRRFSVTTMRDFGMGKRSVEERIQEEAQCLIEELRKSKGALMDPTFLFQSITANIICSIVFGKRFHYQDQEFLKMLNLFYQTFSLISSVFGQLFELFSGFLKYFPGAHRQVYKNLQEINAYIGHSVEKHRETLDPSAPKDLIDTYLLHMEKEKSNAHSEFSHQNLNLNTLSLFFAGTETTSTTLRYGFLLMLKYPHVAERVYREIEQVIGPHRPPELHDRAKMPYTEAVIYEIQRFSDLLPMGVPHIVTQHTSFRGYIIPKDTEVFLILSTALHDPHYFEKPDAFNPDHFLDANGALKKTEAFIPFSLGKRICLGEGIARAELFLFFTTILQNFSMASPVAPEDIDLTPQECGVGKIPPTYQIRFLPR
As to the kind of experiment: Drug metabolism assessed as human recombinant CYP2B6-mediated 6-Hydroxymethylexemestane formation rate per pmol of enzyme at 10 uM after 10 mins.

Data set [5] has as its target T3, Cytochrome P450 2C9 (Homo sapiens, UniProt P11712). As to the kind of experiment: Drug metabolism assessed as human recombinant CYP2C9-mediated 6-Hydroxymethylexemestane formation rate per pmol of enzyme at 10 uM after 10 mins.
Data set [6] has as its target Cytochrome P450 3A4 (Homo sapiens, UniProt P08684). As to the kind of experiment: Drug metabolism assessed as human recombinant CYP3A4-mediated 6-Hydroxymethylexemestane formation rate per pmol of enzyme at 10 uM after 10 mins.
Data set [7] deals with Liver microsome. As to the kind of experiment: Drug metabolism in human liver microsomes assessed as 6-hydroxymethylexemestane formation at 10 uM after 10 mins by LC-MS/MS analysis.
Data set [8] deals with T2, Cytochrome P450 2B6. As to the kind of experiment: Drug metabolism assessed as human recombinant CYP2B6-mediated 6-Hydroxymethylexemestane formation at 10 uM after 10 mins by Michaelis-Menten saturation curve analysis. The following applies: recombinant enzyme.
Data set [9] addresses T4, Cytochrome P450 1A1 (Homo sapiens, UniProt P04798).
T4 sequence (P04798 whole entry): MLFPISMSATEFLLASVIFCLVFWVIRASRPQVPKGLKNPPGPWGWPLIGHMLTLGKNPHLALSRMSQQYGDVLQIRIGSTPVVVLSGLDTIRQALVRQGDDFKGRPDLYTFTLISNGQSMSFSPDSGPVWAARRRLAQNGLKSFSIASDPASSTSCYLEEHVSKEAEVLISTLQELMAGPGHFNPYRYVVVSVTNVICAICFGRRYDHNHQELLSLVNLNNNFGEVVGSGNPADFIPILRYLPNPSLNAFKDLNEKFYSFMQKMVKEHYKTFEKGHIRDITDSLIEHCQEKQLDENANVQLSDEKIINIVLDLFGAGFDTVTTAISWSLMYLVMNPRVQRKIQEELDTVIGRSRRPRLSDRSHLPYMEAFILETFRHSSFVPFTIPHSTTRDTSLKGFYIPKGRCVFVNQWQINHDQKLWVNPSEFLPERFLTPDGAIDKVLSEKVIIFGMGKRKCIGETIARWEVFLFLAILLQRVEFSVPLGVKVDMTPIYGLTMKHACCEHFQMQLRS
As to the kind of experiment: Drug metabolism assessed as human recombinant CYP1A1-mediated 6-Hydroxymethylexemestane formation rate per pmol of enzyme at 10 uM after 10 mins.

In data set [10] the test system is Liver microsome. As to the kind of experiment: Drug metabolism in human liver microsomes assessed as 6-hydroxymethylexemestane formation after 10 mins by Michaelis-Menten saturation curve analysis.
Data set [11] addresses T5, Cytochrome P450 2C19 (Homo sapiens, UniProt P33261). As to the kind of experiment: Drug metabolism assessed as human recombinant CYP2C19-mediated 6-Hydroxymethylexemestane formation at 10 uM after 10 mins by Michaelis-Menten saturation curve analysis. The following applies: recombinant enzyme.
The target in data set [12] is T3, Cytochrome P450 2C9. As to the kind of experiment: Drug metabolism assessed as human recombinant CYP2C9-mediated 6-Hydroxymethylexemestane formation at 10 uM after 10 mins by Michaelis-Menten saturation curve analysis. Particulars: recombinant enzyme.
The target in data set [13] is T1, Cytochrome P450 2C8. As to the kind of experiment: Drug metabolism assessed as human recombinant CYP2C8-mediated 6-Hydroxymethylexemestane formation rate per pmol of enzyme at 10 uM after 10 mins.
Data set [14] addresses T5, Cytochrome P450 2C19. As to the kind of experiment: Drug metabolism assessed as human recombinant CYP2C19-mediated 6-Hydroxymethylexemestane formation rate per pmol of enzyme at 10 uM after 10 mins.
The test system of data set [15] is Liver microsome. As to the kind of experiment: Drug metabolism in human liver microsomes assessed as retention time at 50 uM after 10 mins by HPLC with UV analysis.
Data set [16] concerns the target Cytochrome P450 2E1 (Homo sapiens, UniProt P05181). As to the kind of experiment: Drug metabolism assessed as human recombinant CYP2E1-mediated 17-hydroexemestane and 6-Hydroxymethylexemestane formation assessed as inhibition of metabolite formation at 10 uM after 10 mins by Michaelis-Menten saturation curve analysis in presence of 50 uM diethylthiocarbamate. Set-up: interact cpd dose 50 uM. Particulars: recombinant enzyme.

Data set [17] concerns the target T2, Cytochrome P450 2B6. As to the kind of experiment: Drug metabolism assessed as human recombinant CYP2B6-mediated 17-hydroexemestane and 6-Hydroxymethylexemestane formation assessed as inhibition of metabolite formation at 10 uM after 10 mins by Michaelis-Menten saturation curve analysis in presence of 5 uM thioTEPA. Set-up: interact cpd dose 5 uM. Particulars: recombinant enzyme.

The test system of data set [18] is Liver microsome. As to the kind of experiment: Drug metabolism in human liver microsomes assessed as retention time at 300 uM after 10 mins by HPLC with UV analysis.

T3 sequence (P11712 whole entry): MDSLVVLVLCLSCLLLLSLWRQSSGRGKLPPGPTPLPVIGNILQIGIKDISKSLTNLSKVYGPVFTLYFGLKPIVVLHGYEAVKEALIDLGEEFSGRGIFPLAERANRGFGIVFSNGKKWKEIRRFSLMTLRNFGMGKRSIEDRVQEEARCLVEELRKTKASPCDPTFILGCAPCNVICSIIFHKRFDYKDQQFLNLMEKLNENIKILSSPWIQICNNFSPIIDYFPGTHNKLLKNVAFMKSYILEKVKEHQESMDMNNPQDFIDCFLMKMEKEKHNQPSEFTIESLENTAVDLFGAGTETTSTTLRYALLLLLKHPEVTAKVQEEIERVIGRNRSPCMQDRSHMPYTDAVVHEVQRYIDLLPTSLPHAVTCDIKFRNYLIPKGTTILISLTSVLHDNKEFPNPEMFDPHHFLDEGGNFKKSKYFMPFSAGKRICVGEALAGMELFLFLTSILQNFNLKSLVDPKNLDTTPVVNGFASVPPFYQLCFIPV
T5 sequence (P33261 whole entry): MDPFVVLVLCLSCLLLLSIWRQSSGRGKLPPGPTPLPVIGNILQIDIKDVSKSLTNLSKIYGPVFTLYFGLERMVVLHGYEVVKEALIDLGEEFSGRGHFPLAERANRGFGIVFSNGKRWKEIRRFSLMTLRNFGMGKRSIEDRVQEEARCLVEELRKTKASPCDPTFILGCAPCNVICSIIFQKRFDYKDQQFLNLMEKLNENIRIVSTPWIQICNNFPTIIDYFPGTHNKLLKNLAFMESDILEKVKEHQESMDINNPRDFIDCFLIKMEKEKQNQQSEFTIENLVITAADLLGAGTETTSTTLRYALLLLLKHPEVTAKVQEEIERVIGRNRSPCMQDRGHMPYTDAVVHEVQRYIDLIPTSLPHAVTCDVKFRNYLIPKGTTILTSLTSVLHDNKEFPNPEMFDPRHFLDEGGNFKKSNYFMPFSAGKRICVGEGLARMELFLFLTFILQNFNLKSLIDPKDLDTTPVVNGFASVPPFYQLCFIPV
Cytochrome P450 3A5, sequence (P20815 whole entry): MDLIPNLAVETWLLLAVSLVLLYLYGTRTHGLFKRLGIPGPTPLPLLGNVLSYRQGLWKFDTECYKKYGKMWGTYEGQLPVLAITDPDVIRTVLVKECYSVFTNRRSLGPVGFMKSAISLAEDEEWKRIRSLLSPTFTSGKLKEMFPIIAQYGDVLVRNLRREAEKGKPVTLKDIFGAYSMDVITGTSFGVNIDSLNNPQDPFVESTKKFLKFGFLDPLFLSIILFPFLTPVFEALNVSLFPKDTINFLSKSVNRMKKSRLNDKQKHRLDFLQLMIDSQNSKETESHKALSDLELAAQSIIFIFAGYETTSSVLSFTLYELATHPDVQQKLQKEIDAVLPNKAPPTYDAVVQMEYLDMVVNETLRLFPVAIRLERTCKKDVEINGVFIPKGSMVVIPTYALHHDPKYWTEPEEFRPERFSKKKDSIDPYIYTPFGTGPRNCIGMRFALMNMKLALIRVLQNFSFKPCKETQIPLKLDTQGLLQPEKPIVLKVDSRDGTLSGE
Cytochrome P450 3A4, sequence (P08684 whole entry): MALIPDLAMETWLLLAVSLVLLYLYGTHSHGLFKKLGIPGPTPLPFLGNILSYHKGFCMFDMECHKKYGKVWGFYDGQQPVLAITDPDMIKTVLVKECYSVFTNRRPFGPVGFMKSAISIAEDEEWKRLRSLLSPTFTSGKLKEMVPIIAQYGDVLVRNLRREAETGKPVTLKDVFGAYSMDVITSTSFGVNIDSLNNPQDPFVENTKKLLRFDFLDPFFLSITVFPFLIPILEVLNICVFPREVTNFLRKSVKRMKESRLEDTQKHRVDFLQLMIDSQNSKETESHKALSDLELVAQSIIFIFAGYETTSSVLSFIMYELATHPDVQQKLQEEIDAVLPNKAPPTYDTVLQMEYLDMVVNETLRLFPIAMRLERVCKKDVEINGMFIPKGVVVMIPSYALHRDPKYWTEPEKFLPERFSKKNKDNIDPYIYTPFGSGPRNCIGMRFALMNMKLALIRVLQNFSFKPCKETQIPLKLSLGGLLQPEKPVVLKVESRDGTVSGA
Cytochrome P450 2E1, sequence (P05181 whole entry): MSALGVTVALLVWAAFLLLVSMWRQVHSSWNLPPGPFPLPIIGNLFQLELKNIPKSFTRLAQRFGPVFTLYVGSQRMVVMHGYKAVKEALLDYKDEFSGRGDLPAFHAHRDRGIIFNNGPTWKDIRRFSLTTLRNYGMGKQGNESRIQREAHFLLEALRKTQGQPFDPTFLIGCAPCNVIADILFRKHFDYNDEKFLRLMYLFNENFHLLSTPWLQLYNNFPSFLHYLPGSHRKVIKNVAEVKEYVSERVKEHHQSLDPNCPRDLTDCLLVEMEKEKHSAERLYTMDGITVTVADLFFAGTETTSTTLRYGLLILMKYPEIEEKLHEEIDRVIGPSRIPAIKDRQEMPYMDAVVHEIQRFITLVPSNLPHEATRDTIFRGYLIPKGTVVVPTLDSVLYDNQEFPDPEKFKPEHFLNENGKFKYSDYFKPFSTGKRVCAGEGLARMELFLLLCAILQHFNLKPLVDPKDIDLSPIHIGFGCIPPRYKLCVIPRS

On to `C[C@]12C=CC(=O)C=C1C(CO)=C[C@@H]1[C@@H]2CC[C@]2(C)C(=O)CC[C@@H]12`, for which the Retention_time in [1] came to 6.4 min. Further, the Drug metabolism in data set [2] is given as 0.3 pmol/min; in data set [3] it was “metabolite_detected”; in data set [4] it was 0.1 pmol/min; in data set [5], “metabolite_detected”; in data set [6], 0.42 pmol/min; in data set [9] it was “metabolite_detected”. Moreover, the Drug metabolism result in data set [11], in [12], in [13] and in [14] was “metabolite_detected” in each case. The “Vmax(app)” value in data set [7] is 200.47 pmol/mg/min; in [8], 1.93 pmol/mg/min; in data set [10], 781.15 pmol/mg/min. Further, the values for the Km in [8] (read-out: Km(app)) and in data set [10] (read-out: Km(app)) were 9 µM and 37.1 µM, respectively.

With `C#CC1(O)CC[C@H]2[C@@H]3CCC4=CC(=O)CC[C@@H]4[C@H]3CC[C@@]21CC` (stereo not given in full) [NORGESTREL], the Retention_time in data set [15] was found to be 20.2 min.

For `C=C1C[C@@H]2[C@H](CC[C@]3(C)C(=O)CC[C@@H]23)[C@@]2(C)C=CC(=O)C=C12` [EXEMESTANE], the “inhibition (INH)” value in data set [16] and in data set [17] was below 20% each time. For the same compound, the Retention_time in data set [18] is 15.6 min.
